Laboratory results taken from article PMC12011184, “Galanin Reduces Myocardial Ischemia/Reperfusion Injury in Rats with Streptozotocin Diabetes” (Acta Naturae, 2025).

Assay: Solubility of peptide G in water
Assay type: physicochemical
Protocol: Peptide G was obtained by convergent solid-phase synthesis through condensation of peptide segments, which, in turn, were obtained either on a polymer surface or in solution. Peptide G was purified by preparative HPLC to 98% purity on a Knauer chromatograph (Germany) using a Kromasil 100-10 ODS column (Sweden) (30 × 250 mm). Analytical HPLC was performed on a Kromasil 100-5 C18 column (4.6 × 250 mm) with a 5-μm sorbent particle size. The following eluents were used: 0.1% TFA as buffer A and 80% acetonitrile in buffer A as buffer B. The elution was carried out in a linear buffer B gradient ranging from 20 to 80% for 30 min at a rate of 1 ml/min. Detection was performed at λ = 220 nm (Supplementary materials; Fig. S1). The peptide structure was confirmed by MALDI-TOF/TOF mass spectrometry on an UltrafleXtreme Bruker Daltonics GmbH mass spectrometer (Germany) equipped with a UV laser (Nd) (Supplementary materials, Fig. S2).

With `CC[C@H](C)[C@H](NC(=O)[C@H](C)NC(=O)[C@H](Cc1c[nH]cn1)NC(=O)[C@@H]1CCCN1C(=O)CNC(=O)[C@H](CC(C)C)NC(=O)[C@H](CC(C)C)NC(=O)[C@H](Cc1ccc(O)cc1)NC(=O)CNC(=O)[C@H](C)NC(=O)[C@H](CO)NC(=O)[C@H](CC(N)=O)NC(=O)[C@H](CC(C)C)NC(=O)[C@@H](NC(=O)[C@H](Cc1c[nH]c2ccccc12)NC(=O)CN)[C@@H](C)O)C(=O)N[C@@H](CC(=O)O)C(=O)N[C@@H](CC(N)=O)C(=O)N[C@@H](Cc1c[nH]cn1)C(=O)N[C@@H](CCCNC(=N)N)C(=O)N[C@@H](CO)C(=O)N[C@@H](Cc1ccccc1)C(=O)N[C@@H](CO)C(=O)N[C@@H](CC(=O)O)C(=O)N[C@@H](CCCCN)C(=O)N[C@@H](Cc1c[nH]cn1)C(=O)NCC(=O)N[C@@H](CC(C)C)C(=O)N[C@H](C(N)=O)[C@@H](C)O` [G, galanin] the solubility was greater than 40 mg/mL.
